Like-named read-outs stand apart in the source and are kept apart here.
What was measured:
CAIX [1] = biological target: T1, CAIX (Homo sapiens, UniProt Q16790); details: FTSA, pH 7.0, 37 °C; taken from previous publication; read-out: Observed Dissociation Constant (Kd_obs), CAIX; cited from earlier work
T1 construct: made in house

CAII [2] = biological target: T2, CAII (Homo sapiens, UniProt P00918); details: FTSA, pH 7.0, 37 °C; taken from previous publication; read-out: Observed Dissociation Constant (Kd_obs), CAII; cited from earlier work;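 for Intrinsic Gibbs energy change (ΔGint), CAII: recombinant human CAII, thermal shift with ANS dye fluorescence, Kd_obs from fitting melting temperature versus ligand concentration, intrinsic values corrected for deprotonated sulfonamide and Zn-bound water fractions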
T2 construct: made in house; host or cells: E. coli

CAXII [3] = biological target: T3, CAXII (Homo sapiens, UniProt O43570); details: FTSA, pH 7.0, 37 °C; taken from previous publication; read-out: Observed Dissociation Constant (Kd_obs), CAXII; cited from earlier work;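 for Intrinsic Gibbs energy change (ΔGint), CAXII: recombinant CAXII made in E. coli, ANS-fluorescence thermal shift with affinity fitted from Tm versus ligand concentration, intrinsic energy from Kd_obs corrected for deprotonated sulfonamide and Zn-water fractions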
T3 construct: made in house; host or cells: E. coli
T3 sequence (O43570 25-354): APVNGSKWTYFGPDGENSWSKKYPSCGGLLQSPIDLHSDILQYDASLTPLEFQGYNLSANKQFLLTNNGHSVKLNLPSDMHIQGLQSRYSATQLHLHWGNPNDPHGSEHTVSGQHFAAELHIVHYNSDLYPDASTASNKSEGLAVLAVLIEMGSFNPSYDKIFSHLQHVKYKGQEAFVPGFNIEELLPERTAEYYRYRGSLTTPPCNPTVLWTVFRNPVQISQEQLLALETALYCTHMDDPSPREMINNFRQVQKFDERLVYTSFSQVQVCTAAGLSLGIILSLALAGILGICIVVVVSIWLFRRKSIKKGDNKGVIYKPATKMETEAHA

CAI [4] = biological target: T4, CAI (Homo sapiens, UniProt P00915); details: FTSA, pH 7.0, 37 °C; taken from previous publication; read-out: Observed Dissociation Constant (Kd_obs), CAI; cited from earlier work;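 for Intrinsic Gibbs energy change (ΔGint), CAI: human CAI expressed in E. coli, ANS fluorescence thermal shift with Kd fitted from melting temperature versus ligand concentration, intrinsic values correct for deprotonated sulfonamide and Zn-water CA fractions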
T4 construct: made in house; host or cells: E. coli
T4 sequence (P00915 whole entry): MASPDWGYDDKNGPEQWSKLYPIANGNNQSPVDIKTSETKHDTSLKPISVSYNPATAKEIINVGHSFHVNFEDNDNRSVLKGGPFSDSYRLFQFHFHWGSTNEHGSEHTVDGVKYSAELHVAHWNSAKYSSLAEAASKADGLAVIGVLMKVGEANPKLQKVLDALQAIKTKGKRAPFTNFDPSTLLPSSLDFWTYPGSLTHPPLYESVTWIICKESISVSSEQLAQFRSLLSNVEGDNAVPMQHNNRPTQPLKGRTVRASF

CAXIII [5] = biological target: T5, CAXIII (Homo sapiens, UniProt Q8N1Q1); assay: biochemical; details: Observed Dissociation Constant (Kd_obs), FTSA, pH 7.0, 37 °C;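 note: recombinant human CAXIII melting temperature tracked by ANS fluorescence in thermal shift assay, Tm fitted against ligand concentration, intrinsic value corrects Kd for deprotonated sulfonamide and Zn-bound water fractions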
T5 sequence (Q8N1Q1 whole entry): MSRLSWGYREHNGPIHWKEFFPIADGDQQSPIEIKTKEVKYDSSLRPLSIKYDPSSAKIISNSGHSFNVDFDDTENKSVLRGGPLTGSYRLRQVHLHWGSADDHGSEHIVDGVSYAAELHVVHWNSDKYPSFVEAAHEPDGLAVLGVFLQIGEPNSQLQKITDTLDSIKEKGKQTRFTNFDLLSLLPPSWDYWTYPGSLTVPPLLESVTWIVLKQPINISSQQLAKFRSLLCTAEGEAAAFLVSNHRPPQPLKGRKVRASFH
Experimental: (§1) Human CA isozymes were expressed in E. coli (CAI, II, III, IV, VA, VB, VII, XII, XIII, XIV) or mammalian cells (CAVI and CAIX), chromatographically purified following the published protocols [47], and stored at −80 °C. The protein concentration was determined by UV absorption at 280 nm using Beer–Lambert law.
(§2) The QIAGEN Rotor-Gene Q was used to carry out the experiments, with a blue channel used for excitation (365 nm) and detection (460 nm). FTSA in this case relies on an extrinsic probe, 8-anilino-1-naphthalenesulfonate (ANS), to detect the fluorescence increase during protein denaturation, from which protein melting temperature (Tm) can be determined. […] The observed affinity of ligands for CAs was determined by plotting the Tm as a function of ligand concentration and then fitting a curve as described previously [48]. […] Samples were heated from 25 °C to 99 °C at the speed of 1 °C/min.
(§3) The intrinsic thermodynamic parameters were calculated as described in [40]. The intrinsic reaction of inhibitor binding to CA is shown in Equation (1).
(§4) When calculating Kd_int values, these protein and ligand fractions from Equation (1) have to be accounted for (Equations (2) and (3)). The intrinsic dissociation constant is calculated by multiplying Kd_obs value by the corresponding fractions of protein and ligand (Equation (4)). (2) fRSO2NH^−=10^pH−pKa_RSO2NH2/1+10^pH−pKa_RSO2NH2 (3) fCAZnH2O=1−10^pH−pKa_CAZnH2O/1+10^pH−pKa_CAZnH2O (4) Kd_int=Kd_obs×fRSO2NH^−×fCAZnH2O (5) ΔGint0=RTlnKd_int
(§5) The intrinsic standard Gibbs energy changes upon binding were calculated using Equation (5). Here, R—universal ideal gas constant (8.3144 J/mol·K), T—absolute temperature (310.15 K).

CAII [6] = biological target: T2, CAII; assay: Isothermal titration calorimetry (ITC), CAII; type: binding; details: pH 7.0, 37 °C, read-out: Observed Dissociation Constant (Kd_obs), CAII, ITC data in brackets
CAIII = biological target: T6, CAIII (Homo sapiens, UniProt P07451); assay: Fluorescent thermal shift assay (FTSA), CAIII; type: binding; details: FTSA, pH 7.0, 37 °C; read-out: Observed Dissociation Constant (Kd_obs), CAIII
T6 construct: made in house; host or cells: E. coli
T6 sequence (P07451 whole entry): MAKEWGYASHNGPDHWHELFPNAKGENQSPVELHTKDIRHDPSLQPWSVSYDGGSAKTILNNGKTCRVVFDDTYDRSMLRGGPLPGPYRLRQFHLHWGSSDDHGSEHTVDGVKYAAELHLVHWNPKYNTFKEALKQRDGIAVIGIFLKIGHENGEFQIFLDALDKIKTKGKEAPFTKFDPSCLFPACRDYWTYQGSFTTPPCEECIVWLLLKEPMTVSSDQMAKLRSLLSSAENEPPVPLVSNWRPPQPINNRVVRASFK
Experimental: as §1, §2
(§6) The intrinsic thermodynamic parameters were calculated as described in [40]. The intrinsic reaction of inhibitor binding to CA is shown in Equation (1). […] It is known that CA proteins bind sulfonamides only when water molecules are coordinated to the Zn(II) ion, and sulfonamides only bind to CA proteins when their amino group is deprotonated (confirmed by neutron crystallography [53, 54, 55]):(1) CA Zn^II−H2O+RSO2NH^−⇄ CA Zn^II−NH SO2R+H2O
as §4, §5

CAII [7] = biological target: T2, CAII; assay: biochemical; type: binding; details: for Intrinsic Gibbs energy change (ΔGint), CAII: 37 °C, calculated (Equation 5); for Kd: FTSA, pH 7.0, 37 °C, read-out: Observed Dissociation Constant (Kd_obs), CAII
CAIX [8] = biological target: T1, CAIX; assay: biochemical; type: binding; details: for Intrinsic Gibbs energy change (ΔGint), CAIX: 37 °C, calculated (Equation 5); for Kd: FTSA, pH 7.0, 37 °C, read-out: Observed Dissociation Constant (Kd_obs), CAIX
CAI [9] = biological target: T4, CAI; assay: biochemical; type: binding; details: for Intrinsic Gibbs energy change (ΔGint), CAI: 37 °C, calculated (Equation 5); for Kd: FTSA, pH 7.0, 37 °C, read-out: Observed Dissociation Constant (Kd_obs), CAI
Experimental: as §1, §2, §3, §4, §5

CAIV = biological target: T7, CAIV (Homo sapiens, UniProt P22748); assay: Fluorescent thermal shift assay (FTSA), CAIV; type: binding; details: for Intrinsic Gibbs energy change (ΔGint), CAIV: 37 °C, calculated (Equation 5); for Kd: FTSA, pH 7.0, 37 °C, read-out: Observed Dissociation Constant (Kd_obs), CAIV;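 for all read-outs here: recombinant human enzyme, thermal denaturation followed by ANS fluorescence, melting temperature versus ligand concentration fitted for Kd_obs, intrinsic value corrected for deprotonated sulfonamide and Zn-bound water fractions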
T7 construct: made in house; host or cells: E. coli
T7 sequence (P22748 19-312): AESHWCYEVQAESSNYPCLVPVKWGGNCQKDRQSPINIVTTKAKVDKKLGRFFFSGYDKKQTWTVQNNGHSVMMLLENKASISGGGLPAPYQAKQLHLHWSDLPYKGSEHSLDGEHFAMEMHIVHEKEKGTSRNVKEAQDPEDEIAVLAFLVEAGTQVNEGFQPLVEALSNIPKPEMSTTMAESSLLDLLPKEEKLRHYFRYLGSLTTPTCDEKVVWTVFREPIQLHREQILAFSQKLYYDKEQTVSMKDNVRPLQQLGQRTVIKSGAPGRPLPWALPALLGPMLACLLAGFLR
Experimental: as §1, §2, §6, §4, §5

CAVI = biological target: T8, CAVI (Homo sapiens, UniProt P23280); assay: Fluorescent thermal shift assay (FTSA), CAVI; type: binding; details: for Intrinsic Gibbs energy change (ΔGint), CAVI: 37 °C, calculated (Equation 5); for Kd: FTSA, pH 7.0, 37 °C, read-out: Observed Dissociation Constant (Kd_obs), CAVI;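 for all read-outs here: human CAVI expressed in mammalian cells, ANS fluorescence tracked during thermal unfolding, melting temperature fitted against ligand concentration, intrinsic values corrected for deprotonated sulfonamide and Zn-bound water fractions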
T8 construct: made in house
T8 sequence (P23280 21-290 limits assumed): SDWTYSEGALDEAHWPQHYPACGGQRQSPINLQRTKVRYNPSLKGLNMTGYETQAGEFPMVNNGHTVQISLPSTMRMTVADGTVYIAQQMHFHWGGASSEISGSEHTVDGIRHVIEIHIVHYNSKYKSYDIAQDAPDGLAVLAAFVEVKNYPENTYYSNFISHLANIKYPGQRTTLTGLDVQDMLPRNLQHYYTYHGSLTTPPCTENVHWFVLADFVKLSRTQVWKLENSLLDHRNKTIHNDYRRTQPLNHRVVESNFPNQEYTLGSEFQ
Experimental: as §1, §2, §6, §4, §5

CAVB [10] = biological target: T9, CAVB (Homo sapiens, UniProt Q9Y2D0); assay: Fluorescent thermal shift assay (FTSA), CAVB; type: binding; details: for Intrinsic Gibbs energy change (ΔGint), CAVB: 37 °C, calculated (Equation 5); for Kd: FTSA, pH 7.0, 37 °C, read-out: Observed Dissociation Constant (Kd_obs), CAVB
T9 construct: made in house; host or cells: E. coli
T9 sequence (Q9Y2D0 34-317): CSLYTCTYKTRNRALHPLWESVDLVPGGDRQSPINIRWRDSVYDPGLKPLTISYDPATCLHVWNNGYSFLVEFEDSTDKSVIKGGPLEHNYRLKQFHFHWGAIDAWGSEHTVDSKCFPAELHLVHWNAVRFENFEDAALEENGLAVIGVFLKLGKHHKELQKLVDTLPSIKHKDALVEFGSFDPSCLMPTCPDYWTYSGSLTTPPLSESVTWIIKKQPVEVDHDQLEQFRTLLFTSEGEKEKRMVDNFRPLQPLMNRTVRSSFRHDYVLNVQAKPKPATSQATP

CAXIV = biological target: T10, CAXIV (Homo sapiens, UniProt Q9ULX7); assay: Fluorescent thermal shift assay (FTSA), CAXIV; type: binding; details: for Intrinsic Gibbs energy change (ΔGint), CAXIV: 37 °C, calculated (Equation 5); for Kd: FTSA, pH 7.0, 37 °C, read-out: Observed Dissociation Constant (Kd_obs), CAXIV;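 for all read-outs here: recombinant human CA XIV from E. coli, ANS-based thermal shift: Kd_obs fitted from melting temperature versus ligand concentration, ΔGint from Kd_obs corrected for deprotonated sulfonamide and Zn-water fractions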
T10 construct: made in house; host or cells: E. coli
T10 sequence (Q9ULX7 16-337): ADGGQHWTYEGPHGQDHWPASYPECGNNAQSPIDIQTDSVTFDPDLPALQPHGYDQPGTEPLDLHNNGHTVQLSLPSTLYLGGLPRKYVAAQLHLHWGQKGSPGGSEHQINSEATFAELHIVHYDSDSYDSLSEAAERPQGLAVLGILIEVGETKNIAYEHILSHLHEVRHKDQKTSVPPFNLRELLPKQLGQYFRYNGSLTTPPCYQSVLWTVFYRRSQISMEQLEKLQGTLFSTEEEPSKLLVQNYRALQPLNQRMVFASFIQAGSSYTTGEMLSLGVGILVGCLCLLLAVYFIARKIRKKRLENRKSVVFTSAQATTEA
Experimental: as §1, §2, §6, §4, §5

CAVA = biological target: T11, CAVA (Homo sapiens, UniProt P35218); assay: Fluorescent thermal shift assay (FTSA), CAVA; type: binding; details: FTSA, pH 7.0, 37 °C; read-out: Observed Dissociation Constant (Kd_obs), CAVA
T11 construct: made in house; host or cells: E. coli
T11 sequence (P35218 39-305): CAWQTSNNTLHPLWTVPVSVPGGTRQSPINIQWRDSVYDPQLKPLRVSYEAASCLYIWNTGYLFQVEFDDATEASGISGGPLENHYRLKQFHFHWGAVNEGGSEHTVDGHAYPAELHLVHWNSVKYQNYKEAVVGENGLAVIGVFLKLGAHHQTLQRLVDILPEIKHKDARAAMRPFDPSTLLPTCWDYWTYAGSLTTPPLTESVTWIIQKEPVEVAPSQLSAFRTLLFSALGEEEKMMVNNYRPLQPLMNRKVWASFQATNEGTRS
Experimental: as §1, §2, §6, §4, §5

[11] = Determination of compound sulfonamide group pKa (UV-Vis spectra at different pH); type: physicochemical; details: universal buffer; spectrophotometric, 37 °C; read-out: Sulfonamide pKa
Experimental: To calculate the intrinsic thermodynamic parameters of compound binding to CA isozymes, the pKa values of the sulfonamide group and the water molecule bound to the Zn(II) ion at the active site of CA proteins had to be determined. The pKa values for CA isozyme-bound water molecules were taken from, CAI—8.1; CAII—6.9; CAIII—6.5; CAIV—6.6; CAVA—6.7; CAVB—7.0; CAVI—6.0; CAVII—6.8; CAIX—6.6; CAXII—6.8; CAXIII—8.0; CAXIV—6.1. […] The pKa values were calculated as described previously in [28, 52] by normalizing the absorbance, plotting it as a function of pH, then fitting to the Henderson–Hasselbalch equation using the least square method (Figure S105).
Since the pKa values were only able to be measured for compound group 26–36, due to universal buffer pH limitations, intrinsic thermodynamic parameters were not calculated for compounds 2(a,b)–25(a,b), only for compounds 26–36 using experimentally obtained pKa values when possible and using the average pKa value mentioned above for compounds not measured.

CAXIII [12] = biological target: T5, CAXIII; details: 37 °C; calculated (Equation 5)
Experimental: as §1, §2, §3, §4, §5

CAVII = biological target: T12, CAVII (Homo sapiens, UniProt P43166); assay: Fluorescent thermal shift assay (FTSA), CAVII; type: binding; details: for Intrinsic Gibbs energy change (ΔGint), CAVII: 37 °C, calculated (Equation 5); for Kd: FTSA, pH 7.0, 37 °C, read-out: Observed Dissociation Constant (Kd_obs), CAVII
T12 construct: made in house; host or cells: E. coli
T12 sequence (P43166 whole entry): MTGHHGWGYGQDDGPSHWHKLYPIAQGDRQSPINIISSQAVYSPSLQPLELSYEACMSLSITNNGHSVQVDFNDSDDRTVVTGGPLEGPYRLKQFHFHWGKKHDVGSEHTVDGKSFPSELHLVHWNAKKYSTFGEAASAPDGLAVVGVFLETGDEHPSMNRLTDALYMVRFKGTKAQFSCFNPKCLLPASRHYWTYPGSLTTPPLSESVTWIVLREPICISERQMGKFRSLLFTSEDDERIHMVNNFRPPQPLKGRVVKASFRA
Experimental: as §1, §2, §6, §4, §5

CAXII [13] = biological target: T3, CAXII; assay: biochemical; type: binding; details: for Intrinsic Gibbs energy change (ΔGint), CAXII: 37 °C, calculated (Equation 5); for Kd: FTSA, pH 7.0, 37 °C, read-out: Observed Dissociation Constant (Kd_obs), CAXII
Experimental: as §1, §2, §3, §4, §5

CAVB [14] = biological target: T9, CAVB; assay: Isothermal titration calorimetry (ITC), CAVB; type: binding; details: pH 7.0, 37 °C

| SMILES | Kd (CAXIII [5]) | Kd (CAIII) | Intrinsic Gibbs energy change (ΔGint), CAII (CAII [7]) | Kd (CAII [7]) | Intrinsic Gibbs energy change (ΔGint), CAIX (CAIX [8]) | Kd (CAIX [8]) | Intrinsic Gibbs energy change (ΔGint), CAI (CAI [9]) | Kd (CAI [9]) | Intrinsic Gibbs energy change (ΔGint), CAIV (CAIV) | Kd (CAIV) | Intrinsic Gibbs energy change (ΔGint), CAVI (CAVI) | Kd (CAVI) | Intrinsic Gibbs energy change (ΔGint), CAVB (CAVB [10]) | Kd (CAVB [10]) | Intrinsic Gibbs energy change (ΔGint), CAXIV (CAXIV) | Kd (CAXIV) | Kd (CAVA) | melting point | pKa [11] | Intrinsic Gibbs energy change (ΔGint), CAXIII (CAXIII [12]) | other results |
| --- | --- | --- | --- | --- | --- | --- | --- | --- | --- | --- | --- | --- | --- | --- | --- | --- | --- | --- | --- | --- | --- |
| Cc1cc(C)n(C(=O)C2CC(=O)N(c3ccc(S(N)(=O)=O)cc3)C2)n1 (centres unmarked) [Compound 21] |  |  |  |  |  |  |  |  |  |  |  |  |  |  |  |  |  |  |  |  | Kd (CAIX [1]): 220 nM; Kd (CAII [2]): 66 nM; Kd (CAXII [3]): 1400 nM; Kd (CAI [4]): 250 nM |
| CCOC(=O)c1sc(N(CCC(=O)O)c2ccc(S(N)(=O)=O)cc2)nc1C [Compound 31, 3-((5-(Ethoxycarbonyl)-4-methylthiazol-2-yl)(4-sulfamoylphenyl)amino)propanoic acid] | 450 nM | ≥ 200000 nM | -13.5 kcal/mol | 910 nM | -14.3 kcal/mol | 360 nM | -12.5 kcal/mol | 2000 nM | -12.5 kcal/mol | 6700 nM | -12.4 kcal/mol | 24000 nM | -11.5 kcal/mol | 20000 nM | -13.8 kcal/mol | 2000 nM | ≥ 200000 nM | 221 to 222 °C | 10.1 | -13.4 kcal/mol | Kd (CAII [6]): 860 nM; Intrinsic Gibbs energy change (ΔGint), CAVII (CAVII): -13.1 kcal/mol; Kd (CAVII): 1700 nM; Intrinsic Gibbs energy change (ΔGint), CAXII (CAXII [13]): -12.6 kcal/mol; Kd (CAXII [13]): 3800 nM |
| CCOC(=O)c1sc(N(CCC(=O)OC)c2ccc(S(N)(=O)=O)cc2)nc1C [Compound 32, Ethyl 2-((3-Methoxy-3-oxopropyl)(4-sulfamoylphenyl)amino)-4-methylthiazole-5-carboxylate] | 330 nM | ≥ 200000 nM | -14.6 kcal/mol | 53 nM | -14.1 kcal/mol | 190 nM | -12.5 kcal/mol | 830 nM | -12.7 kcal/mol | 2000 nM | -12.4 kcal/mol | 10000 nM | -14.9 kcal/mol | 30 nM | -13.8 kcal/mol | 770 nM | ≥ 200000 nM | 140 to 141 °C | 9.7 | -13.1 kcal/mol | ΔHobs, CAVB (CAVB [14]; 50 mM sodium phosphate buffer, 100 mM NaCl): -9.6 kcal/mol; Kd (CAVB [14]; read-out: Observed Dissociation Constant (Kd_obs), CAVB, ITC data in brackets): 41 nM; Intrinsic Gibbs energy change (ΔGint), CAVII (CAVII): -14.2 kcal/mol; Kd (CAVII): 130 nM; Intrinsic Gibbs energy change (ΔGint), CAXII (CAXII [13]): -11.7 kcal/mol; Kd (CAXII [13]): 7700 nM |
| NC(=S)N(CCC(=O)O)c1ccc(S(N)(=O)=O)cc1 [Compound 26] |  |  |  |  |  |  |  |  |  |  |  |  |  |  |  |  |  |  |  |  | Kd (CAIX [1]): 10000 nM; Kd (CAII [2]): 5000 nM; Kd (CAXII [3]): 33000 nM; Kd (CAI [4]): 10000 nM |
| Cc1csc(N(CCC(=O)NN)c2ccc(S(N)(=O)=O)cc2)n1 [Compound 29, 4-((3-Hydrazineyl-3-oxopropyl)(4-methylthiazol-2-yl)amino)benzenesulfonamide] | 1700 nM | ≥ 200000 nM | -14.3 kcal/mol | 380 nM | -15.5 kcal/mol | 80 nM | -14.4 kcal/mol | 150 nM | -13.7 kcal/mol | 1500 nM | -12.8 kcal/mol | 20000 nM | -15.2 kcal/mol | 77 nM | -15.8 kcal/mol | 130 nM | ≥ 200000 nM | 167 to 168 °C | 10.3 | -12.9 kcal/mol | Intrinsic Gibbs energy change (ΔGint), CAVII (CAVII): -14 kcal/mol; Kd (CAVII): 670 nM; Intrinsic Gibbs energy change (ΔGint), CAXII (CAXII [13]): -13.9 kcal/mol; Kd (CAXII [13]): 830 nM |
